Values quoted from earlier work as cited in patent US8283364B2, “Compounds which have activity at M1 receptor and their uses in medicine” (Glaxo Group Limited, priority 2005, dated 2012).

Assays:
[1] = tested on: dopamine driven behaviours; details: amphetamine induced locomotion in rats, apomorphine induced climbing in mice, turning in 6-OH-DA lesioned rats, amphetamine-induced motor unrest in monkeys
[2] = tested on: A10 and A9 dopamine cell firing; details: A10 versus A9

## CCCCCCOc1nsnc1C1=CCCN(C)C1 [xanomeline]
[1]
  effect on dopamine driven behaviours: reverses a number of dopamine driven behaviours
[2]
  effect on dopamine cell firing: inhibit A10, but not A9, dopamine cell firing
Psychotic symptoms; Alzheimer's patients
  effect on psychotic symptoms (suspiciousness, hallucinations, delusions): reduce psychotic symptoms
Psychotic symptoms; ascribed to relatively non-selective nature of the compound
  side effects: dose-limiting peripheral cholinergic side effects
